Measurements published in patent US9782383B2, “Prophylactic and therapeutic agent for attention-deficit/hyperactivity disorder” (FUJIMOTO CO., LTD., priority 2013, dated 2017).
Read-outs that look alike come from different tables or passages of the source.

Assays:
[1] = human, in vivo; cited from earlier work
[2] = system: ADHD model rats or normal rats; conditions: cited from earlier work; for locomotor activities: increasing doses
[3] = system: human monoamine transporters (DAT, NET, SERT); conditions: highest first; Neuropsychopharmacology 27: 699-711 (2002); cited from earlier work
[4] = human, in vivo; cited from earlier work; remark: listed apart in the source
SHRSP/Ezo rats [5] = test: Open field test (hyperactivity, inner zone spent time); format: in vivo, rat
Method: (§1) In all the tests described herein, the R configuration (−) substance hydrochloride salt of the compound for use in the invention (hereinafter referred to as “BPAP” in some cases) as the test material and methylphenidate hydrochloride (SIGMA Aldrich) as the comparative drug were dissolved in saline, diluted to a volume of 2 ml/kg before administration, and systemically administered into six-week-old male SHRSP/Ezo rats 30 minutes before behavior tests. Note that BPAP was subcutaneously (s.c.) administered, and methylphenidate was subcutaneously (s.c.) or intraperitoneally (i.p.) administered after the confirmation that there was no difference between the two routes, i.e., the s.c. and i.p. administration.
The spontaneous locomotor activity in a new environment was evaluated using an open-field apparatus (90 (width)×90 (depth)×40 cm (height), 81 squares).
In this experiment, under a 200-lux illuminance condition, rats were placed in the center of the open field and allowed to move freely in the field for a 60-minute test session, and the horizontal activities (crossings: the number of squares crossed) during the exploration was analyzed by a video tracking system for behavioral experiments (LimeLight Actimetrics, USA).
(§2) Data were represented as the means±standard errors. Student's t-test was used for the statistics analysis, and a P value below 5% was considered statistically significant.
Since the spent time in the inner zones (nine compartments in the center) (inner zone spent time) in the open field test is used for the evaluation of the anxiety level, the spent times per time (sec/15 min) and per behavior (sec/count) corrected with the locomotor activity (total crossings) were analyzed as the secondary evaluation in the open field test (FIG. 3). […] SHRSP/Ezo rats show an increase in spent time in the inner zone at the habituated phase during which hyperactivity was observed, indicating a reduction in anxiety level at the habituated phase. […] However, 0.3 mg/kg of BPAP had no effect on the reduction in anxiety level at habituated phase.

rats = test: Methamphetamine-seeking behavior in rats
[6] = system: human monoamine transporters (DAT, NET, SERT); test: Affinity for human monoamine transporters; format: binding; conditions: for order of affinities for human monoamine transporters: highest first
[7] = system: ADHD model rats or normal rats; test: Locomotor activity in ADHD model rats or normal rats; format: in vivo, rat; conditions: high dose
SHRSP/Ezo rats [8] = test: Elevated-plus maze test (impulsivity); format: in vivo, rat
Method: as §1
The anxiety-related behavior was evaluated using an elevated plus maze (open arm: 50 (length)×10 cm (width), enclosed arm: 50 (length)×10 (width)×40 cm (height), height above the floor: 50 cm). The device is constituted by a wall-less open arm and a wall-surrounding enclosed arm crossing each other at right angles at a height of 50 cm above the floor. An animal staying in an open arm is exposed to anxiety in the elevated wall-less open state. […] The elevated-plus maze test reflects an equilibrium state between the approach behavior (curiosity) and the avoidance behavior driven by anxiety in an animal, and thus is generally used for the evaluation of the anxiety level of an animal.
In this experiment, under a 200-lux illuminance condition, a rat was placed in the center of the crossing point of two sets of arms and allowed to enter freely into the maze for a ten-minute test session. The total number of arm entries (total arm entries), the time spent in open arms and the rate of open arm entries were analyzed by a video tracking system for behavioral experiments (LimeLight Actimetrics).
as §2

SHRSP/Ezo rats [9] = test: Y-maze test (inattentive behavior); format: in vivo, rat
Method: as §1
The short-term working memory was evaluated as a spontaneous alternation behavior using a Y-maze (45 (length)×10 (width)×35 cm (height)). The spontaneous alternation is a behavior based on the habit of a rodent preferring to investigate a new arm of the maze rather than returning to one that was previously visited in the Y-maze. In order to select three different arms continuously, it is necessary to remember the previously visited arm. To achieve this, therefore, the short-term working memory is considered indispensable. Because the processes of the short-term working memory are closely related to an appropriate amount of attention toward achievement of the task, the short-term working memory implicates aspects of attention. Thus, the Y-maze test was carried out to evaluate the inattentive behavior in SHRSP/Ezo rats.
The spontaneous alternation was measured according to the method by Sarter et al. (Psychopharmacology (Berl), 94:491-5 (1988)) using the following procedure. Under a 200-lux illuminance condition, each rat was placed in the center of the crossing point of the three arms and allowed to enter the maze arm freely for eight-minute test session, and the sequence of arm entries was recorded. The alteration behavior was defined as the consecutive entry into three arms, i.e. the combination of three different arms, with stepwise combinations in the sequence. The percentage obtained by dividing the spontaneous alternation behavior by the total number of arm entries (total arm entries) minus 2 was determined as the spontaneous alternation behavior rate (alternation rate). For example, assuming that the rat has entered the arms A, B, and C of the Y-maze in the order of ACBABACBAB, the spontaneous alternation behavior is five (ACB, CBA, BAC, ACB, and CBA), the total number of arm entries is ten, and the spontaneous alternation behavior rate is 62.5%. To consider the influence of variations in spontaneous alternation behavior rate among groups during the baseline (drug-untreated) period on the drug efficacy evaluation, the first Y-maze test was carried out three days before the drug efficacy evaluation, and grouping was performed based on the result of spontaneous alternation behavior rates in the 1st Y-maze test.
as §2

ADHD patients = conditions: cited from earlier work
[10] = 1 mg/kg as comparative drug (FIG. 2)
[11] = 1 mg/kg as comparative drug (FIG. 1)

In the case of `CNCC[C@@H](Oc1ccccc1C)c1ccccc1` [atomoxetine], the dry mouth [1] is listed as 13.8%, the headaches [1] is listed as 10.5% and the “locomotor activities during an exploration period” value [2] is listed as “decreases”. The locomotor activities [2] was “does not exhibit increases”, the “order of affinities for human monoamine transporters” value (shortened to “order of affinities”) [3] was “NET>SERT>DAT” and the abdominal pain [4] was 12.2%. For the same compound, the headache [4] was 22.3%.
With `CCCNC(CCC)Cc1cc2ccccc2o1` (single isomer, unassigned; (-)) [BPAP, (−)-1-(benzofuran-2-yl)-2-propylaminopentane] the “locomotor activity at the exploration phase” value (SHRSP/Ezo rats [5]; s.c., 0.3 mg/kg) was “no action”, the “locomotor activity at the habituated phase” value (SHRSP/Ezo rats [5]; s.c., 0.3 mg/kg) was “no action” and the “reduction in anxiety level (inner zone spent time) at habituated phase” value (SHRSP/Ezo rats [5]; s.c., 0.3 mg/kg) was “no effect”. The “increase in behavior at the habituated phase” value (SHRSP/Ezo rats [5]; s.c., 0.01 to 0.1 mg/kg) was “significantly inhibited”, the “inner zone spent time at the habituated phase” value (SHRSP/Ezo rats [5]; s.c., 0.01 to 0.1 mg/kg) was “significantly reduced” and the “locomotor activity at the exploration phase” value (SHRSP/Ezo rats [5]; s.c., 0.01 to 0.1 mg/kg) was “without affecting”. For the same compound, the methamphetamine-seeking behavior (rats; due to drug-associated cues and methamphetamine-priming) was “inhibition action”, the “induction of methamphetamine-seeking behavior (dependence liability)” value (rats; effective dose) was “did not induce” and the “relative affinity NET/DAT” value ([6]; compared with methylphenidate) was “substantially equal”. For the same compound, the “relative affinity for SERT (SERT/DAT)” value ([6]; compared with methylphenidate) was “higher”, the “order of affinities” value [6] was “DAT>NET>serotonin transporter (SERT)” and the spontaneous locomotor activity [7] was “increases”. For the same compound, the “rate of open arm entries” value (SHRSP/Ezo rats [8]; s.c., 0.1 mg/kg (P=0.08)) was “tendency to reduce”, the “spent time on the open arms per total number of arm entries” value (SHRSP/Ezo rats [8]; s.c., 0.1 mg/kg, secondary analysis) was “significantly reduced” and the “extension of the spent time on the open arms” value (SHRSP/Ezo rats [8]; s.c., 0.01 to 0.3 mg/kg) was “no effect”. For the same compound, the impaired alternation behavior (SHRSP/Ezo rats [9]; s.c., 0.03 mg/kg) was “no improvement action was observed”, the “total number of arm entries compared with the first trial (Y1)” value (SHRSP/Ezo rats [9]; s.c., 0.03 to 0.3 mg/kg) was “significantly decreased” and the impaired alternation behavior (SHRSP/Ezo rats [9]; s.c., 0.1 to 0.3 mg/kg) was “significantly improved”.
In the case of `COC(=O)C(c1ccccc1)C1CCCCN1` (stereo not shown) [methylphenidate], the “reduction in anxiety level (inner zone spent time) at the habituated phase” value (SHRSP/Ezo rats [5]; 1 mg/kg (FIG. 3)) is reported as “no effect”, the “spent time in the inner zone at the exploration phase” value (SHRSP/Ezo rats [5]; 1 mg/kg (FIG. 3)) is reported as “significantly increased” and the “hyperactivity during the exploration phase (0 to 15 minutes)” value (SHRSP/Ezo rats [5]; [10]) is reported as “worsened”. For the same compound, the “hyperactivity during the habituated phase (15 to 60 minutes)” value (SHRSP/Ezo rats [5]; [10]) was “worsened”, the “hyperactivity (horizontal ambulatory) in open field test” value (SHRSP/Ezo rats [5]; i.p., 1 mg/kg) was “did not decreased” and the “hyperactivity (horizontal ambulatory) in open field test” value (SHRSP/Ezo rats [5]; i.p., 0.01 and 0.1 mg/kg) was “significantly decreased”. For the same compound, the “increase in spontaneous ambulatory in open field test” value (SHRSP/Ezo rats [5]; i.p., 3 and 30 mg/kg) was “exacerbated”, the “order of affinities” value [6] was “DAT>NET>serotonin transporter (SERT)” and the “extension of the spent time on the open arms” value (SHRSP/Ezo rats [8]; 1 mg/kg (FIG. 4)) was “did not improve”. The “increase in the rate of open arm entries” value (SHRSP/Ezo rats [8]; 1 mg/kg (FIG. 4)) was “did not improve”, the “increase in the total number of arm entries (hyperactivity)” value (SHRSP/Ezo rats [8]; 1 mg/kg (FIG. 4)) was “significant worsened” and the “extension of the open arm spent time” value (SHRSP/Ezo rats [8]; i.p., 0.01 to 1 mg/kg) was “no statistically significant change”. For the same compound, the “increase in the number of open arm entries” value (SHRSP/Ezo rats [8]; i.p., 0.01 to 1 mg/kg) was “no statistically significant change”, the “reduction in spontaneous alternation behavior rate” value (SHRSP/Ezo rats [9]; [11]) was “recovered” and the “total number of arm entries” value (SHRSP/Ezo rats [9]; [11]) was “without increasing”. For the same compound, the “increase in the total number of arm entries” value (SHRSP/Ezo rats [9]; i.p., 1 mg/kg, dose validation) was “significant exaltation”, the “reduction in spontaneous alternation behavior rate” value (SHRSP/Ezo rats [9]; i.p., 1 mg/kg, dose validation) was “improved” and the “increase in the total number of arm entries” value (SHRSP/Ezo rats [9]; i.p., 0.01 and 0.1 mg/kg) was “no influence”. The “reduction in spontaneous alternation behavior rate” value (SHRSP/Ezo rats [9]; i.p., 0.01 to 1 mg/kg) was “dose-dependently improved”, the locomotor activities [2] was “dose-dependent increases” and the “share of ADHD patients for whom the drug is ineffective” value (ADHD patients) was “approximately three out of ten”.
